For data set [1], the target named is T1, ERa (Homo sapiens, UniProt P03372).
T1 sequence (P03372 1-595): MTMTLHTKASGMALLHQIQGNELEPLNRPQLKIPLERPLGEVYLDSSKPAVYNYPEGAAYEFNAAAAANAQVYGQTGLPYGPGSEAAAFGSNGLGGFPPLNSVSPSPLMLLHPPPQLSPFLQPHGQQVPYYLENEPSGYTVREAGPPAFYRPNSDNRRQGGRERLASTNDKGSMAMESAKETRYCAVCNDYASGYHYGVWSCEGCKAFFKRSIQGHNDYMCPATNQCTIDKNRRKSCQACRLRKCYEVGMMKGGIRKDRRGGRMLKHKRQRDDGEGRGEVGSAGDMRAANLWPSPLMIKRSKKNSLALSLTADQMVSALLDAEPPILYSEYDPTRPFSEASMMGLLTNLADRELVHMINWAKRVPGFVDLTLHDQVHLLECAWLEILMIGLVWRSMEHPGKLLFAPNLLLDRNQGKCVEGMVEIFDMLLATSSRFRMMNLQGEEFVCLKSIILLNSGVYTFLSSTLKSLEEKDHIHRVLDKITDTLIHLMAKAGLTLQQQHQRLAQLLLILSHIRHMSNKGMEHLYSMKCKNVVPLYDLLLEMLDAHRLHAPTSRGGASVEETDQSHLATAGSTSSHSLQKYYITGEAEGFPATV
Kind of data set: ERa degradation in ERa-positive breast cancer cell lines. The following applies: multiple ERa-positive breast cancer cell lines, such as MCF7. It counts as cell-based.

The target of a further data set is T2, CYP2B6 (Homo sapiens, UniProt P20813).
T2 sequence (P20813 1-491): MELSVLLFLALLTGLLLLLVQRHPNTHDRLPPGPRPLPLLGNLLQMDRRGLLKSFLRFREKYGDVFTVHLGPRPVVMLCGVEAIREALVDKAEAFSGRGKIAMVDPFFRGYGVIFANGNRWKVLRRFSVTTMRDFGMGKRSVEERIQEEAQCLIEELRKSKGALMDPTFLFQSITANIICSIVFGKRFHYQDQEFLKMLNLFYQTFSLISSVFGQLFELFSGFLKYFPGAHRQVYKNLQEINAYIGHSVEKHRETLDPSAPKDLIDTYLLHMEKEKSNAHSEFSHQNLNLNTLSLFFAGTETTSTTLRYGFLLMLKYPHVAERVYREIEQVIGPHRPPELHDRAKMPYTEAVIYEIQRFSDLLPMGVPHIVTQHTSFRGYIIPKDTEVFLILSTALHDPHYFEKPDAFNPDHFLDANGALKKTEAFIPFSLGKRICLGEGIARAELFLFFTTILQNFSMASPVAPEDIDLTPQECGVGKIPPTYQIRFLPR

In data set [2] the test system is tamoxifen-resistant MCF7 xenograft. Put plainly: Tamoxifen-resistant MCF7 xenograft model. It is filed as in vivo, mice. The following applies: in combination with the CDK4/6 inhibitor palbociclib.
The conditions of data set [3]: rat, in vivo, po.
The target of the next data set is CYP2D6 (Homo sapiens, UniProt P10635). Put plainly: CYP2D6 direct inhibition. It is filed as in vitro ADME. The following applies: highest concentration evaluated (10 μM).
Sequence of CYP2D6 (P10635 whole entry): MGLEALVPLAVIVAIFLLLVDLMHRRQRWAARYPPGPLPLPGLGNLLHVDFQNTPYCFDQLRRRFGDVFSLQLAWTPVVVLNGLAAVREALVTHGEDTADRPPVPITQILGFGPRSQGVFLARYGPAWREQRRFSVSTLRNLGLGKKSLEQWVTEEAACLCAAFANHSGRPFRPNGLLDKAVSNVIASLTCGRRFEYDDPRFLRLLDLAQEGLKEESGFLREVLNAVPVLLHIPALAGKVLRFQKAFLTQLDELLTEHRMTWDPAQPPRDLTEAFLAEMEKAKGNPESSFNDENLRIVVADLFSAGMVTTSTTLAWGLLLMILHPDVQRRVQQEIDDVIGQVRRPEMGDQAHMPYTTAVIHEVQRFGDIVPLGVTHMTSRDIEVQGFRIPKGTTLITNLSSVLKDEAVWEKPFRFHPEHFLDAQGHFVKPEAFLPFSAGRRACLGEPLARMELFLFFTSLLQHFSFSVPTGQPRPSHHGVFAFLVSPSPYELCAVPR
The target of data set [4] is T1, ERa. Kind of data set: Binding to human ERa. The following applies: for IC50: read-out: half-maximal inhibitory concentration (IC50) (converted).
The target of data set [5] is T3, human cytochrome P450 CYP2C8 (Homo sapiens, UniProt P10632).
T3 sequence (P10632 1-490): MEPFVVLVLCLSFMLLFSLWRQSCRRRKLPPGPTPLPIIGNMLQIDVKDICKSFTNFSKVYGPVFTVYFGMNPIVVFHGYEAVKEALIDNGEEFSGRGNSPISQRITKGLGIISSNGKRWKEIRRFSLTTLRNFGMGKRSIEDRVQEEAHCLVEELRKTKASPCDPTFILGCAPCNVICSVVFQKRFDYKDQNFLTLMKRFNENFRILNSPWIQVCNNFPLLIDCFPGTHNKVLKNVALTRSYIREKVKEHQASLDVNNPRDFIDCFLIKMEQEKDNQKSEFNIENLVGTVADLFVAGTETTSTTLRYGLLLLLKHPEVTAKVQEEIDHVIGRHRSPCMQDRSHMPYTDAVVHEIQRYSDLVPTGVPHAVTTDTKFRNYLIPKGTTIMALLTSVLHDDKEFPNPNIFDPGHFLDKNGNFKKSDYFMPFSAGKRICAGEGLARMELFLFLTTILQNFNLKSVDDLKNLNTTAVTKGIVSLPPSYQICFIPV
Kind of data set: In vitro metabolism by CYP2C8. It is filed as in vitro ADME.

Data set [6] concerns the target human cytochrome P450 CYP3A4 (Homo sapiens, UniProt P08684). Kind of data set: In vitro metabolism by CYP3A4. It counts as in vitro ADME.
In a further data set the test system is MCF7 xenograft tumors. Put plainly: MCF7 xenograft tumors in mice, once daily oral administration. It is filed as in vivo. The following applies: once daily oral 30 mg/kg/day (lowest dose level evaluated).

Like-named read-outs stand apart in the source and are kept apart here.

Sequence of human cytochrome P450 CYP3A4 (P08684 whole entry): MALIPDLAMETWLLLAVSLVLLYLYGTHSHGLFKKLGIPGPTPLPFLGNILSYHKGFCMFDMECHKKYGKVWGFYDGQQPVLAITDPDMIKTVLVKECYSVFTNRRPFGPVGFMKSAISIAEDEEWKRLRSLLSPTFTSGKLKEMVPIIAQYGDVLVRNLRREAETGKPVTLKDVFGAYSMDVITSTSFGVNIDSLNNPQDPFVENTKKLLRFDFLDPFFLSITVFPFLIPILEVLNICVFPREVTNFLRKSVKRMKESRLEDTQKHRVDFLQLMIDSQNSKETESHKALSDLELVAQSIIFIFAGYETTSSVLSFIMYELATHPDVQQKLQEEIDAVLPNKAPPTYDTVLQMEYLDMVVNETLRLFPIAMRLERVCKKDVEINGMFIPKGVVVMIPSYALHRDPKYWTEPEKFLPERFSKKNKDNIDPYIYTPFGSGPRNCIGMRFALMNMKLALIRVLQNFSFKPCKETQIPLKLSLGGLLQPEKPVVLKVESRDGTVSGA

The term Ki denotes a measure of affinity in units of concentration, obtained from inhibition or displacement. With `O=C1CC[C@H](N2Cc3cc(N4CCN(CC5CCN(c6ccc([C@@H]7c8ccc(O)cc8OC[C@@H]7c7ccccc7)cc6F)CC5)CC4)ccc3C2=O)C(=O)N1` [compound (1-g), (S)-3-(5-(4-((1-(2-fluoro-4-((3S,4R)-7-hydroxy-3-phenylchroman-4-yl)phenyl)piperidin-4-yl)methyl)piperazin-1-yl)-1-oxoisoindolin-2-yl)piperidine-2,6-dione], the “highest non-severely-toxic dose (HNSTD)” value (both, dog, in vivo, po, 28 day) is reported as 45 mg/kg/day. Moreover, the off-target adverse toxicities result (dog, in vivo) is reported as “no off-target adverse toxicities observed”. Also, where the note is “dogs, 28-day GLP”, the key organ effects entry was “considered on target pharmacological effects”. Besides, the ERa degradation entry at ERa [1] is listed as “induces rapid ERa degradation”. Moreover, at CYP2B6, the CYP2B6 time-dependent inhibition result is reported as “without showing time-dependent inhibition”. In addition, the “anti-tumor activity in combination” value in [2] was “enhanced anti-tumor activity was observed”. In [3], the “presence in mammary gland tissue, ovaries and uterus” value was “quantifiable in mammary gland tissue”; the tissue exposure entry is “highest exposures were observed in the large and small intestine with limited exposure to the brain”. Moreover, in the data set on CYP3A, the “CYP3A time-dependent inhibition” value is “weak time-dependent inhibition”. For the same compound, the CYP2D6 direct inhibition result on CYP2D6 is listed as “did not directly inhibit”. In addition, the IC50 at ERa [4] was 6.02 nM. The Ki at ERa [4] (read-out: inhibitor constant (Ki)) is 0.53 nM. Besides, the IC50 at ERa [4] (same value in ng/mL) is 5.91 nM. Also, in data set [5], the “metabolism by CYP2C8” value is on record as “weakly metabolized”. In [6], the “metabolism by CYP3A4” value was “weakly metabolized”. Further, in the data set with MCF7 xenograft tumors, the “effect on MCF7 xenograft tumors” value was “achieved tumor regression”.

Values taken from patent publication US20250381179A1, “CHROMAN-BASED COMPOUNDS FOR TREATING CANCER” (priority 2024, published 2025).
